Data published in the NIST ThermoML archive (doi:10.1021/acs.jced.5b00197).

Experiments:
[1] = xn = mol fraction of the nth substance listed; details: 96.64 kPa, Liquid, mechanical oscillator
[2] = refractive index (Na D-line) (dimensionless); xn = mol fraction of the nth substance listed; details: 94.64 kPa, Liquid, Standard Abbe refractometry

CC(=O)O [acetic acid] + Cc1ccccc1
Details | mass density, 293.15 K [kg/m3] | mass density, 298.15 K [kg/m3] | mass density, 303.15 K [kg/m3] | refractive index, 293.15 K | refractive index, 298.15 K | refractive index, 303.15 K
[1], x1 = 0.146 | 878.94 | 873.65 | 868.47 | – | – | –
[1], x1 = 0.277 | 894.11 | 888.81 | 883.38 | – | – | –
[1], x1 = 0.397 | 907.9 | 902.58 | 897.1 | – | – | –
[1], x1 = 0.506 | 924.08 | 918.49 | 912.96 | – | – | –
[1], x1 = 0.605 | 940.43 | 934.75 | 929.15 | – | – | –
[1], x1 = 0.697 | 960 | 954.12 | 948.31 | – | – | –
[1], x1 = 0.782 | 978.4 | 972.48 | 966.6 | – | – | –
[1], x1 = 0.859 | 1000.2 | 994.34 | 988.34 | – | – | –
[1], x1 = 0.897 | 1017.74 | 1011.75 | 1005.81 | – | – | –
[1], x1 = 0.932 | 1027.84 | 1021.82 | 1015.9 | – | – | –
[1], x1 = 0.967 | 1038.11 | 1032.17 | 1026.28 | – | – | –
[1], x1 = 1 | 1049.63 | 1043.57 | 1037.64 | – | – | –
[2], x1 = 0.146 | – | – | – | 1.48448 | 1.48174 | 1.47906
[2], x1 = 0.277 | – | – | – | 1.47082 | 1.4681 | 1.46535
[2], x1 = 0.397 | – | – | – | 1.45878 | 1.45618 | 1.45352
[2], x1 = 0.506 | – | – | – | 1.44593 | 1.44332 | 1.44065
[2], x1 = 0.605 | – | – | – | 1.43372 | 1.43116 | 1.42842
[2], x1 = 0.697 | – | – | – | 1.4212 | 1.41872 | 1.41617
[2], x1 = 0.782 | – | – | – | 1.40891 | 1.4065 | 1.40452
[2], x1 = 0.859 | – | – | – | 1.39681 | 1.39453 | 1.39228
[2], x1 = 0.897 | – | – | – | 1.38731 | 1.38466 | 1.38303
[2], x1 = 0.932 | – | – | – | 1.38235 | 1.38029 | 1.3782
[2], x1 = 0.967 | – | – | – | 1.37721 | 1.3752 | 1.37315
[2], x1 = 1 | – | – | – | 1.37224 | 1.37012 | 1.36809

CC(=O)O [acetic acid] + O
Details | mass density, 293.15 K [kg/m3] | mass density, 298.15 K [kg/m3] | mass density, 303.15 K [kg/m3] | refractive index, 293.15 K | refractive index, 298.15 K | refractive index, 303.15 K
[1], x1 = 0.0322 | 1013.1 | 1010.07 | 1007.37 | – | – | –
[1], x1 = 0.0697 | 1029.11 | 1024.31 | 1021.16 | – | – | –
[1], x1 = 0.114 | 1040.03 | 1036.43 | 1032.93 | – | – | –
[1], x1 = 0.167 | 1049.79 | 1045.44 | 1039.59 | – | – | –
[1], x1 = 0.231 | 1057.69 | 1053.12 | 1048.56 | – | – | –
[1], x1 = 0.31 | 1064.29 | 1059.45 | 1054.48 | – | – | –
[1], x1 = 0.412 | 1068.57 | 1063.31 | 1058.16 | – | – | –
[1], x1 = 0.545 | 1068.93 | 1063.47 | 1058.01 | – | – | –
[1], x1 = 0.629 | 1067.42 | 1061.15 | 1057.17 | – | – | –
[1], x1 = 0.729 | 1062.82 | 1058.08 | 1053.26 | – | – | –
[1], x1 = 0.85 | 1059.62 | 1053.73 | 1047.95 | – | – | –
[1], x1 = 1 | 1049.63 | 1043.57 | 1037.64 | – | – | –
[2], x1 = 0.0322 | – | – | – | 1.34079 | 1.34007 | 1.33927
[2], x1 = 0.0697 | – | – | – | 1.34792 | 1.34695 | 1.34593
[2], x1 = 0.114 | – | – | – | 1.35489 | 1.35372 | 1.3525
[2], x1 = 0.167 | – | – | – | 1.3609 | 1.35957 | 1.35822
[2], x1 = 0.231 | – | – | – | 1.36583 | 1.36436 | 1.36288
[2], x1 = 0.31 | – | – | – | 1.37062 | 1.369 | 1.36736
[2], x1 = 0.412 | – | – | – | 1.37406 | 1.37233 | 1.37058
[2], x1 = 0.545 | – | – | – | 1.37703 | 1.37519 | 1.37331
[2], x1 = 0.629 | – | – | – | 1.37724 | 1.37545 | 1.37349
[2], x1 = 0.729 | – | – | – | 1.37721 | 1.3753 | 1.37335
[2], x1 = 0.85 | – | – | – | 1.37559 | 1.37359 | 1.3716
[2], x1 = 1 | – | – | – | 1.37224 | 1.37012 | 1.36809
